Assays:
[1] = biological target: T1, SHV-5 β-lactamase (Klebsiella pneumoniae, UniProt P0A3M1); experiment: β-lactamase enzyme inhibition, SHV-5; type: biochemical
T1 construct: made in house; host or cells: E. coli BL21(DE3)
Protocol: (§1) For SHV-5, Kpc-2, p99AmpC and OXA-1 β-lactamases, E. coli BL21(DE3) bacterial cells carrying expression plasmids (expressed as native untagged proteins) for the individual β-lactamases were grown in 1 L of Superbroth (Teknova Inc. Hollister, Calif.) supplemented with 100 μg/ml kanamycin selection and 1×5052 (0.5% glycerol, 0.05% glucose and 0.2% α-lactose) at 35° C. for 18-20 hours. Cells were harvested by centrifugation (4,000×g, 4° C., 20 min), resuspended in 50 ml of 10 mM HEPES pH 7.5 ( 1/20 of the initial volume). The cells were lysed by sonication (5 pulses of 45 seconds) at 45 W on ice. The lysates were clarified by centrifugation at 10,000×g for 40 minutes at 4° C. Samples were diluted 5-fold in 50 mM sodium acetate pH 5.0, stored overnight at 4° C., after which they were centrifuged at 10,000×g for 30 minutes to clarify, and filtered through 0.45 μm filters. The samples were loaded onto a 5 ml Capto S sepharose cation exchange column (GE Healthcare) pre-equilibrated with 50 mM sodium acetate pH 5.0. The column was washed with 5 column volumes of 50 mM sodium acetate pH 5.0 to wash out unbound protein and a linear gradient of NaCl (0 to 500 mM) was used to elute the protein (over 16 CV) from the column. Fractions were assayed for […] activity using Centa (Calbiochem, Gibbstown, N.J.) or Nitrocefin (EMD Millipore chemicals, Darmstadt, Germany) as a reporter β-lactamase substrate for activity in the isolated fractions. Active fractions were pooled, concentrated and further purified by gel filtration chromatography on a Superdex 75 prep grade gel filtration column (GE Healthcare, Piscataway, N.J.) pre-equilibrated in 50 mM Hepes pH 7.5, 150 mM NaCl. Active fractions were pooled, concentrated, and quantitated by BCA protein determination (Thermo Scientific, Rockford, Ill.), dialyzed into PBS and frozen at −80° C. in 20% glycerol until use.
(§2) An equal volume of diluted enzyme stock was added, and the plates were incubated at 37° C. for 15 min. Nitrocefin was used as substrate for p99 AmpC, VIM-2 and OXA-1 and dispensed into each well at a final concentration of 100 μM. Absorbance at 486 nm was immediately monitored for 10 min using a Biotek Powerwave XS2 microplate spectrophotometer using the GEN5 software package (Biotek Instruments, Winooski Vt.). In an analogous fashion, imipenem was used as substrate for KPC-2 and Cefotaxime was used for SHV-5, while changes in absorbance upon hydrolysis of the β-lactam ring were monitored at 300 nm and 260 nm respectively in UV-transparent 96-well microtiter assay plates. Maximum rates of hydrolysis were compared to those in control wells (without inhibitors), and percentages of enzyme inhibition were calculated for each concentration of inhibitor. The concentration of inhibitor needed to reduce the initial rate of hydrolysis of substrate by 50% (IC50) was calculated as the residual activity of β-lactamase at 486 nm using GraFit version 7 kinetics software package (Erithacus Software, Surrey, UK).
(§3) Using the methodology described above, examples of the current invention were evaluated for their ability to inhibit β-lactamase enzymes from all four Ambler classifications (A through D). […] NT=Not tested.

[2] = biological target: T2, KPC-2 β-lactamase (Klebsiella pneumoniae, UniProt Q9F663); experiment: β-lactamase enzyme inhibition, KPC-2; type: biochemical; settings: imipenem substrate, 300 nm; 15 min at 37° C. preincubation; read-out: IC50 KPC-2 (Class A)
T2 construct: made in house; host or cells: E. coli BL21(DE3)
Protocol: as §1, §2, §3

[3] = biological target: T3, VIM-2 metallo β-lactamase (Pseudomonas aeruginosa, UniProt Q9K2N0); experiment: β-lactamase enzyme inhibition, VIM-2; type: biochemical; settings: Nitrocefin 100 μM, 486 nm; 15 min at 37° C. preincubation; read-out: IC50 VIM-2 (Class B)
T3 construct: made in house; host or cells: E. coli BL21(DE3)
Protocol: For VIM-2 metallo β-lactamase, the procedure was identical with the following exceptions, first the protein was not pH adjusted to pH 5 with 50 mM sodium acetate. Second, the chromatography step was changed to a 5 ml Q sepharose anion exchange column pre-equilibrated with 50 mM Hepes pH 7.5, and elution of the protein was achieved by a linear gradient of NaCl (0-600 mM). Finally, the VIM-2 purification required a second run (3rd step) on the Q sepharose anion exchange column to achieve acceptable purity (>90%).
as §2, §3

[4] = biological target: T4, p99 AmpC β-lactamase (Enterobacter cloacae, UniProt P05364); experiment: β-lactamase enzyme inhibition, p99 AmpC; type: biochemical
T4 construct: made in house; host or cells: E. coli BL21(DE3)
Protocol: as §1, §2
Using the methodology described above, examples of the current invention were evaluated for their ability to inhibit β-lactamase enzymes from all four Ambler classifications (A through D).

[5] = system: E. coli ESBL4 expressing CTX-M-15; experiment: broth microdilution MIC, E. coli CTX-M-15; type: cell-based; settings: for MIC of exemplary compounds in presence of fixed β-lactams, E. coli ESBL4 CTX-M-15: Fixed CAZ (ceftazidime) 4 μg/mL
Excerpt: (§4) To determine the ability of test compounds to potentiate the inhibition of the growth of bacterial strains that produce beta-lactamase enzymes, classic cell based broth microdilution MIC assays were employed. Six bacteria strains producing beta-lactamase enzymes were used: E. coli expressing the Class A Extended Spectrum Beta-Lactamase (ESBL) CTX-M-15, E. cloacae expressing the Class C P99, K. pneumoniae expressing the Class A carbapenemase KPC-3, P. aeruginosa expressing the Class B carbapenemase VIM-2, K pneumoniae expressing the class A carbapenemase KPC-2 and the class B carbapenemase VIM-4, and S. aureus producing the Class A penicillinase PC-1. The assay was conducted in Cation Adjusted Mueller Hinton Broth (CAMHB, BD #212322, BD Diagnostic Systems, Sparks, Md.). Bacteria strains were grown for 3-5 hours in CAMBH broth. Test compounds were added to a microtiter plate in 2-fold serial dilutions in CAMHB in a final concentration range of 32 μg/mL to 0.25 μg/ml. An overlay of CAMHB containing a Beta-lactam was added to the compounds at a final static concentration of 4 μg/ml. […] In addition to the titration of test compounds the MICs of a panel of control beta-lactams is also tested to ensure the strains are behaving consistently from test to test. Once the test compound and antibiotics are added the plates can be inoculated according to CLSI broth microdilution method. After inoculation the plates are incubated for 16-20 hours at 37° C., then the Minimal Inhibitory Concentration (MIC) of the test compound is determined visually.
(§5) Using the methodology described above, examples of the current invention were evaluated for their ability to inhibit the growth of β-lactamase-producing bacteria in the presence of a β-lactam antibiotic.
(§6) Representative results are shown in Table 4 where A represents an MIC of the fixed β-lactam antibiotic in the presence of >32 µg/mL of a β-lactamase inhibitor of exemplary compounds, B represents the MIC in the presence of between 8 and 32 µg/mL of a β-lactamase inhibitor of exemplary compounds, and C represents the MIC in the presence of ≤4 µg/mL of a β-lactamase inhibitor of exemplary compounds. NT=Not Tested.

[6] = system: E. cloacae 144200 expressing Class C P99 AmpC; experiment: broth microdilution MIC, E. cloacae P99; type: cell-based; settings: for MIC of exemplary compounds in presence of fixed β-lactams, E. cl. 144200 p99 AmpC: Fixed CAZ (ceftazidime) 4 μg/mL
Excerpt: as §4, §5, §6

[7] = system: K. pneumoniae 156319 expressing KPC-3; experiment: broth microdilution MIC, K. pneumoniae KPC-3; type: cell-based; settings: Fixed Mero (meropenem) 4 μg/mL
Excerpt: as §4, §5, §6

[8] = system: K. pneumoniae A-1797 expressing KPC-2 and VIM-4; experiment: broth microdilution MIC, K. pneumoniae KPC-2 and VIM-4; type: cell-based; settings: Fixed Mero (meropenem) 4 μg/mL
Excerpt: as §4, §5, §6

T2 sequence (Q9F663 25-293, looked up): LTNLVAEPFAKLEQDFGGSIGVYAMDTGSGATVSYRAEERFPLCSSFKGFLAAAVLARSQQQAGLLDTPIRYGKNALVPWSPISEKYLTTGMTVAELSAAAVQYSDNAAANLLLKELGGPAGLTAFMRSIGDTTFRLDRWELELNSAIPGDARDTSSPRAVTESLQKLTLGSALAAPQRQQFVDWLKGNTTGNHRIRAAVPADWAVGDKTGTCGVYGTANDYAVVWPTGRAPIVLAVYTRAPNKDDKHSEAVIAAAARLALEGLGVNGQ
T1 sequence (P0A3M1 22-286): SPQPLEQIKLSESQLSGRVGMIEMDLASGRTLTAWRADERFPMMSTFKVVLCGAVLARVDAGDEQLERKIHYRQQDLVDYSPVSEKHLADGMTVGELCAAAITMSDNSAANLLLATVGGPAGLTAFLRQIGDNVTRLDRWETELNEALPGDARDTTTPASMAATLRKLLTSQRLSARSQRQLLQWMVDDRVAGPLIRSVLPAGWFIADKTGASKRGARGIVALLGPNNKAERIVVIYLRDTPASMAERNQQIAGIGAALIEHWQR
T4 sequence (P05364 21-381): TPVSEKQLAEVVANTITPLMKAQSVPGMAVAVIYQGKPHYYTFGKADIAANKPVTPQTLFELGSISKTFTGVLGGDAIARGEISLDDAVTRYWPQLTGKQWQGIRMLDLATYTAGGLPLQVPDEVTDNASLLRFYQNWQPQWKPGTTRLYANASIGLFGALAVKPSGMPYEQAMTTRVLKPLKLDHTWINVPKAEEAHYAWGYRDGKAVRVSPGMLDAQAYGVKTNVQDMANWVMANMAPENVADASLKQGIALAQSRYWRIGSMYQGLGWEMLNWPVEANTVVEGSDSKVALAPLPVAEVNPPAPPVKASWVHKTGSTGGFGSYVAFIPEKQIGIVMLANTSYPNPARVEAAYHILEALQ

Compound: CNS(=O)(=O)CCC(=O)N[C@H]1Cc2cccc(C(=O)O)c2OB1O [Example 54, (R)-2-Hydroxy-3-(3-methylsulfamoyl-propionylamino)-3,4-dihydro-2H-benzo[e][1,2]oxaborinine-8-carboxylic acid]
- IC50 [1]: < 100 nM
- IC50 [2]: < 100 nM
- IC50 [3]: 1000 to 10000 nM
- IC50 [4]: < 100 nM
- MIC of exemplary compounds in presence of fixed β-lactams, E. coli ESBL4 CTX-M-15 [5]: C (C represents the MIC in the presence of ≤4 g/mL of a β-lactamase inhibitor)
- MIC of exemplary compounds in presence of fixed β-lactams, E. cl. 144200 p99 AmpC [6]: C (C represents the MIC in the presence of ≤4 g/mL of a β-lactamase inhibitor)
- MIC of exemplary compounds in presence of fixed β-lactams, K.P. 156319 KPC-3 [7]: C (C represents the MIC in the presence of ≤4 g/mL of a β-lactamase inhibitor)
- MIC of exemplary compounds in presence of fixed β-lactams, K.P. A-1797 KPC-2 VIM-4 [8]: B (B represents the MIC in the presence of between 8 and 32 g/mL of a β-lactamase inhibitor)

Compound: CC(O)CCC(=O)N[C@H]1Cc2cccc(C(=O)O)c2OB1O (stereo partly drawn) [Example 63, (R)-2-Hydroxy-3-(4-hydroxy-pentanoylamino)-3,4-dihydro-2H-benzo[e][1,2]oxaborinine-8-carboxylic acid]
- MIC of exemplary compounds in presence of fixed β-lactams, E. coli ESBL4 CTX-M-15 [5]: C (C represents the MIC in the presence of ≤4 g/mL of a β-lactamase inhibitor)
- MIC of exemplary compounds in presence of fixed β-lactams, E. cl. 144200 p99 AmpC [6]: C (C represents the MIC in the presence of ≤4 g/mL of a β-lactamase inhibitor)
- MIC of exemplary compounds in presence of fixed β-lactams, K.P. 156319 KPC-3 [7]: C (C represents the MIC in the presence of ≤4 g/mL of a β-lactamase inhibitor)
- MIC of exemplary compounds in presence of fixed β-lactams, K.P. A-1797 KPC-2 VIM-4 [8]: B (B represents the MIC in the presence of between 8 and 32 g/mL of a β-lactamase inhibitor)

Compound: CNS(=O)(=O)CCCC(=O)N[C@H]1Cc2cccc(C(=O)O)c2OB1O [Example 58, (R)-2-Hydroxy-3-(4-methylsulfamoyl-butyrylamino)-3,4-dihydro-2H-benzo[e][1,2]oxaborinine-8-carboxylicacid]
- IC50 [1]: < 100 nM
- IC50 [2]: < 100 nM
- IC50 [3]: 1000 to 10000 nM
- IC50 [4]: < 100 nM
- MIC of exemplary compounds in presence of fixed β-lactams, E. coli ESBL4 CTX-M-15 [5]: C (C represents the MIC in the presence of ≤4 g/mL of a β-lactamase inhibitor)
- MIC of exemplary compounds in presence of fixed β-lactams, K.P. 156319 KPC-3 [7]: C (C represents the MIC in the presence of ≤4 g/mL of a β-lactamase inhibitor)
- MIC of exemplary compounds in presence of fixed β-lactams, K.P. A-1797 KPC-2 VIM-4 [8]: B (B represents the MIC in the presence of between 8 and 32 g/mL of a β-lactamase inhibitor)

Compound: CC(C)(O/N=C(\C(=O)N[C@@H]1C(=O)N2C(C(=O)[O-])=C(C[n+]3ccccc3)CS[C@H]12)c1csc(N)n1)C(=O)O [Ceftazidime, ceftazidime, reference compound]
- MIC ([5]; Escherichia coli, read-out: MIC alone): > 128 µg/mL
- MIC alone ([6]; partner antibiotic alone, E. cloacae expressing Class C P99): 128 µg/mL

Compound: CS(=O)(=O)NCCCC(=O)N[C@H]1Cc2cccc(C(=O)O)c2OB1O [Example 57, (R)-2-Hydroxy-3-(4-methanesulfonylamino-butyrylamino)-3,4-dihydro-2H-benzo[e][1,2]oxaborinine-8-carboxylic acid]
- IC50 [1]: < 100 nM
- IC50 [2]: < 100 nM
- IC50 [3]: 1000 to 10000 nM
- IC50 [4]: < 100 nM
- MIC of exemplary compounds in presence of fixed β-lactams, E. coli ESBL4 CTX-M-15 [5]: C (C represents the MIC in the presence of ≤4 g/mL of a β-lactamase inhibitor)
- MIC of exemplary compounds in presence of fixed β-lactams, K.P. 156319 KPC-3 [7]: C (C represents the MIC in the presence of ≤4 g/mL of a β-lactamase inhibitor)
- MIC of exemplary compounds in presence of fixed β-lactams, K.P. A-1797 KPC-2 VIM-4 [8]: B (B represents the MIC in the presence of between 8 and 32 g/mL of a β-lactamase inhibitor)

Compound: CS(=O)(=O)CCCC(=O)N[C@H]1Cc2cccc(C(=O)O)c2OB1O [Example 59, (R)-2-Hydroxy-3-(4-methanesulfonyl-butyrylamino)-3,4-dihydro-2H-benzo[e][1,2]oxaborinine-8-carboxylic acid]
- IC50 [1]: < 100 nM
- IC50 [2]: < 100 nM
- IC50 [3]: 1000 to 10000 nM
- IC50 [4]: < 100 nM
- MIC of exemplary compounds in presence of fixed β-lactams, E. coli ESBL4 CTX-M-15 [5]: C (C represents the MIC in the presence of ≤4 g/mL of a β-lactamase inhibitor)
- MIC of exemplary compounds in presence of fixed β-lactams, K.P. 156319 KPC-3 [7]: C (C represents the MIC in the presence of ≤4 g/mL of a β-lactamase inhibitor)
- MIC of exemplary compounds in presence of fixed β-lactams, K.P. A-1797 KPC-2 VIM-4 [8]: B (B represents the MIC in the presence of between 8 and 32 g/mL of a β-lactamase inhibitor)

Compound: O=C(Cc1ccncc1)N[C@H]1Cc2cccc(C(=O)O)c2OB1O [Example 65, (R)-2-Hydroxy-3-(2-pyridin-4-yl-acetylamino)-3,4-dihydro-2H-benzo[e][1,2]oxaborinine-8-carboxylic acid]
- IC50 [1]: < 100 nM
- IC50 [2]: < 100 nM
- IC50 [4]: < 100 nM
- MIC of exemplary compounds in presence of fixed β-lactams, E. coli ESBL4 CTX-M-15 [5]: C (C represents the MIC in the presence of ≤4 g/mL of a β-lactamase inhibitor)
- MIC of exemplary compounds in presence of fixed β-lactams, E. cl. 144200 p99 AmpC [6]: C (C represents the MIC in the presence of ≤4 g/mL of a β-lactamase inhibitor)
- MIC of exemplary compounds in presence of fixed β-lactams, K.P. 156319 KPC-3 [7]: C (C represents the MIC in the presence of ≤4 g/mL of a β-lactamase inhibitor)
- MIC of exemplary compounds in presence of fixed β-lactams, K.P. A-1797 KPC-2 VIM-4 [8]: C (C represents the MIC in the presence of ≤4 g/mL of a β-lactamase inhibitor)

— patent publication US11008346B2, “Beta-lactamase inhibitors” (priority 2014, dated 2021)
